Source: US5707855A (priority 1996, dated 1998)
Converted amounts (≈) assume the structure as drawn.

Tests used:
S. typhimurium = assay type: cell-based; conditions: C590 versus C587
Experimental: (§1) The minimum inhibitory concentrations of (MIC) of CEME, CEMA and melittin were determined for a number of different bacteria (Table 2). Briefly, cells were grown overnight at 37° C. in LB-S (Luria broth without any salt supplement) and diluted one in 10,000 in the same medium to give concentrations of about 10^4 to 10^5 CFU/ml. The broth dilutions were set up in a 96 well microtiter plate by putting 200 μl of LB-S containing the initial concentration of antibiotic or compound in column 1 and 100 μl of the same medium in columns 2-12. The compounds were diluted by taking 100 μl of broth from column 1 and mixing it with column 2, resulting in a one in two dilution. This was continued to column 10. Finally, 10 μl of bacteria were pipetted into columns 1-11, and the plates incubated overnight at 37° C. The next day the plates were scored for growth in the wells, and the MIC determined.

[1] = MICs of common antibiotics in the presence of sub-MIC levels of cationic peptides; assay type: cell-based; conditions: for MIC of antibiotic: No peptide
Experimental: as §1
The ability of the cationic peptides to work synergystically was examined by determining the MIC values for some commonly used antibiotics in the presence of sub-MIC levels of cationic peptides (Table 4). […] This may be due to the high membrane permeabilizing activity of CEMA (see below). However, the peptides did lower the MIC of polymyxin B, possibly due to the fact that they are all taken up by the same pathway and are therefore aiding each other's uptake. Of interest is the influence that melittin has on the MIC of polymyxin B, given the […] membrane permeabilizing activity of melittin.

P. AERUGINOSA H309 [2] = assay type: cell-based; conditions: +80 mM Na+
Experimental: as §1, with “Briefly,” for “The minimum inhibitory concentrations of (MIC) of CEME, CEMA and melittin were determined for a number of different bacteria (Table 2). Briefly,”

P. aeruginosa H103 LPS = test: Dansyl polymyxin (DPx) displacement from purified LPS; assay type: binding; conditions: on a μM basis
Experimental: In this assay, DPx was incubated with LPS to saturate the binding sites and then, while polycationic compounds are titrated into the reaction, displacement of the DPx was monitored by the decrease in fluorescence (FIG. 9).
The method of Moore, et al., (Antimicrobial Agents and Chemo., 29:496, 1987), was used to test how much DPx was needed to saturate the binding sties on LPS. Briefly, 5 μl samples of 100 μM DPx were titrated sequentially into 1 ml of 3 μg/ml of LPS until a maximum fluorescence was reached. The fluorescence was measured in a Perkin-Elmer 650-10S fluorescence spectrophotometer with an excitation wavelength of 340 nm and an emission wavelength of 485 nm using slit widths of 5 nm. […] For the binding inhibition assays (Moore, et al., Antimicrobial Agents and Chemo., 29:496, 1987), 2.5 μM DPx was added to 3 μg/ml of H103 LPS in 5 mM HEPES pH 7.2. The test compounds were added 5 μl at a time and the decrease in fluorescence due to displacement of the DPx from the LPS was recorded.

P. AERUGINOSA H309 [3] = test: Lysozyme lysis assay (outer membrane permeabilization); assay type: cell-based
Experimental: Membrane permeabilization by polycationic compounds was measured in two different assays. The first assay measured membrane disruption by the ability of lysozyme to reach the periplasm and cause cell lysis. […] The uptake of lysozyme into whole cells due to membrane permeabilization by various compounds was previously described in Hancock, et al., Antimicrobial Agents and Chemo., 19:777, 1981. Overnight cultures of P. aeruginosa H309 or E. cloacae 218R1 grown in LB-S were diluted 1 in 50 in fresh medium and grown to an OD600 =0.5-0.6. The cells were harvested in a Silencer H-103N clinical centrifuge at 1800 g for 10 min, washed once with one volume of assay buffer (5 mM HEPES pH 7.2, 5 mM KCN), and resuspended in the same buffer to an OD600 of 0.5. Assays consisted of 600 μl of cells with 50 μg/ml of chicken egg white lysozyme and varying concentrations of cationic compounds. Cell lysis was measured as a decrease in the OD600 in a Perkin-Elmer dual beam spectrophotometer. Parallel experiments performed without lysozyme enabled the measurement of the lytic activity of the compounds themselves. To test whether or not permeability to lysozyme could be inhibited by divalent cations, various concentrations of MgCl2 were added to the assay after the addition of lysozyme and before the addition of the test compound.

E. coli strain DC2 = test: Acid-urea gel overlay antibacterial activity; assay type: cell-based; conditions: 15% acid-urea gel overlaid with agar containing ≈10^5 cells, overnight at 37° C.
Experimental: A sample of the partially purified CEME protein was electrophoresed on a 15% acid-urea gel, which separates proteins based on charge and mass (Panyim and Chalkey, Arch. Biochem Biophys., 130:337, 1969). The pH of the buffer is acidic (≈pH 5.0) and the polarity is reversed such that proteins migrate to the cathode. Therefore, the small cationic peptides run relatively quickly through the gel and thus can be easily identified. Antibacterial activity was tested as previously described (Hultmark, Eur. J. Biochem., 106:7, 1980). The gel was incubated in Mueller Hinton broth+0.2M NaPO4 pH 7.4 for 1 hr. It was overlaid with mls of the same media containing 0.6% agar and≈10^5 E. coli strain DC2, and then again with ml of the same media containing only 0.6% agar. […] Melittin is used as a positive control due to its antibacterial activity and similarity in size and PI values.

P. AERUGINOSA H309 [4] = assay type: cell-based; conditions: 10 μM NPN; fluorescence increase
Description: (§2) The second assay determined membrane permeability by the ability of 1-N-phenylnaphthylamine (NPN), a small fluorescent probe, to insert itself into the membrane. Normally, very little NPN can penetrate the outer membrane, but in the presence of a membrane permeabilizer it can insert into the hydrophobic membrane resulting in an increase in fluorescence (FIGS. 7 and 8). This N-phenylnaphthylamine uptake assay was previously described by Loh, et al., Antimicrobial Agents and Chemo., 26:546, 1984. Cells were prepared exactly the same as for the lysozyme lysis assay. 1-N-phenylnaphthylamine (NPN) was dissolved in acetone at a concentration of 500 μM. NPN fluorescence was measured in a Perkin-Elmer 650-10S fluorescent spectrophotometer using excitation and emission wavelengths set to 350 nm and 420 nm respectively, with slit widths of 5 nm. The assay was standardized by adding 20 μl of NPN (final concentration of 10 μM) and 10 μl of 0.64 mg/ml of polymyxin B (final concentration of 6.4 μg/ml) into 1 ml of cells, and adjusting the resulting fluorescence to read 90% deflection (90 arbitrary units). Various compounds were tested by adding 10 μl of different concentrations to a cuvette containing 1 ml of cells and 10 μM NPN. Permeabilizing activity was designated as the total fluorescence minus the fluorescence due to NPN alone. Following the fluorescence measurement, the OD600 of the cells was taken to ensure no significant cell lysis had occurred.

E. coli = assay type: cell-based; conditions: strain UB1005, Parent of DC2
Experimental: as §1

E. cloacae = assay type: cell-based; conditions: strain 218S, Parent of 218R1
Experimental: as §1

[5] = tested on: P. aeruginosa H309 Whole Cells; assay type: binding; conditions: 5 mM HEPES pH 7.2, 5 mM KCN; average of at least three trials; read-out: I50 (DPx displacement from whole cells)
E. cloacae 218R1 = assay type: cell-based; conditions: 10 μM NPN; fluorescence increase
Description: as §2

Row | Molecule | Sensitivity of defensin sensitive strain C590 relative to parent (MIC change) (S. typhimurium) | MIC of antibiotic in the presence of CEMA ([1]; CEMA 0.7 μg/ml) | MIC of antibiotic in the presence of CEMA ([1]; CEMA 1.4 μg/ml) | MIC of antibiotic in the presence of CEME ([1]; CEME 0.6 μg/ml) | MIC of antibiotic in the presence of CEME ([1]; CEME 1.2 μg/ml) | MIC of antibiotic in the presence of Melittin ([1]; Melittin 2 μg/ml) | MIC of antibiotic in the presence of Melittin ([1]; Melittin 4 μg/ml) | MIC of antibiotic [1] | MIC (P. AERUGINOSA H309 [2]) | Affinity for LPS compared with polymyxin B (P. aeruginosa H103 LPS) | Permeabilization of the outer membrane to lysozyme, compared with polymyxin B (P. AERUGINOSA H309 [3]; 50 μg/ml lysozyme, decrease in OD600) | Cell lysis in the absence of lysozyme (P. AERUGINOSA H309 [3]; increased concentrations of peptide) | Permeabilizer activity relative to gentamicin (P. AERUGINOSA H309 [3]; lysozyme lysis assay) | Antibacterial activity in overlaid gel (E. coli strain DC2) | Activity in opening up the membrane to NPN (P. AERUGINOSA H309 [4]) | MIC (E. coli) | MIC (E. cloacae) | IC50 [5] | Activity in opening up the membrane to NPN (E. cloacae 218R1)
1 | CC(C)(O/N=C(\C(=O)N[C@@H]1C(=O)N2C(C(=O)[O-])=C(C[n+]3ccccc3)CS[C@H]12)c1csc(N)n1)C(=O)O [Ceftazidime, ceftazidime] | unchanged | 2 µg/mL | 2 µg/mL | 4 µg/mL | 4 µg/mL | 4 µg/mL | 2 µg/mL | 4 µg/mL | 2 µg/mL (≈ 3.66 µM) | – | – | – | – | – | – | – | – | – | –
2 | C[C@@H](O)[C@H]1C(=O)N2C(C(=O)O)=C(SCCN=CN)C[C@H]12 [Imipenem] | – | 4 µg/mL | 2 µg/mL | 4 µg/mL | 4 µg/mL | 4 µg/mL | 4 µg/mL | 4 µg/mL | – | – | – | – | – | – | – | – | – | – | –
3 | CC[C@H](C)[C@H](NC(=O)CN)C(=O)NCC(=O)N[C@@H](C)C(=O)N[C@H](C(=O)N[C@@H](CC(C)C)C(=O)N[C@@H](CCCCN)C(=O)N[C@H](C(=O)N[C@@H](CC(C)C)C(=O)N[C@H](C(=O)N[C@H](C(=O)NCC(=O)N[C@@H](CC(C)C)C(=O)N1CCC[C@H]1C(=O)N[C@@H](C)C(=O)N[C@@H](CC(C)C)C(=O)N[C@H](C(=O)N[C@@H](CO)C(=O)N[C@@H](Cc1c[nH]c2ccccc12)C(=O)N[C@H](C(=O)N[C@@H](CCCCN)C(=O)N[C@@H](CCCNC(=N)N)C(=O)N[C@@H](CCCCN)C(=O)N[C@@H](CCCNC(=N)N)C(=O)N[C@@H](CCC(N)=O)C(=O)N[C@@H](CCC(N)=O)C(N)=O)[C@@H](C)CC)[C@@H](C)CC)[C@@H](C)O)[C@@H](C)O)C(C)C)C(C)C [Melittin, melittin] | two-fold more sensitive | – | – | – | – | – | – | – | – | slightly lower affinities | did not appear to be a good permeabilizer | cell lysis in the absence of lysozyme occurred | 5- to 10 fold | zones of clearing | less active | – | – | – | –
4 | CN(C)[C@@H]1C(O)=C(C(N)=O)C(=O)[C@@]2(O)C(O)=C3C(=O)c4c(O)cccc4[C@@](C)(O)[C@H]3C[C@@H]12 [Tetracycline] | – | 8 µg/mL | 4 µg/mL | 8 µg/mL | 8 µg/mL | 8 µg/mL | 8 µg/mL | 8 µg/mL | – | – | – | – | – | – | – | – | – | – | –
5 | gentamicin | two-fold more sensitive | – | – | – | – | – | – | – | – | – | – | – | – | – | – | 1 µg/mL | 0.5 µg/mL | 39.1 ± 9.67 µM | –
6 | polymyxin B | four-fold more sensitive | 0.5 µg/mL | 0.12 µg/mL | 0.5 µg/mL | 0.25 µg/mL | 0.5 µg/mL | 0.06 µg/mL | 1 µg/mL | – | – | – | – | – | – | equally active | 0.5 µg/mL | 0.5 µg/mL | 2.04 ± 0.65 µM | equally active
